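Step 1: Grow cells in 96-well plates. Step 2: Expose to compound for 48 hours at 5 concentrations. Step 3: Interpolate endpoints linearly; if unreached, use highest concentration. GI50 = concentration required for 50% inhibition of growth.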 Activity calls are given as the source filed them. Cut-off read from the data, not from the text of the source: active = GI50 up to about 1.1 µM and inactive = higher.
What was measured:
Assay in all cases: DTP human tumour cell line panel, 48 h
CCRF-CEM = tested on: CCRF-CEM
PC-3 = tested on: PC-3
UO-31 = tested on: UO-31
OVCAR-3 = tested on: OVCAR-3
SNB-19 = tested on: SNB-19
SNB-75 = tested on: SNB-75
HOP-92 = tested on: HOP-92
T47D = tested on: T47D
786-0 = tested on: 786-0
SF-295 = tested on: SF-295
Malme-3M = tested on: Malme-3M
DU-145 = tested on: DU-145
MOLT-4 = tested on: MOLT-4
SK-MEL-28 = tested on: SK-MEL-28
K562 = tested on: K562
SF-539 = tested on: SF-539
NCI/ADR-RES = tested on: NCI/ADR-RES
M14 = tested on: M14
IGROV-1 = tested on: IGROV-1
OVCAR-4 = tested on: OVCAR-4

SMILES | GI50 (CCRF-CEM) | GI50 (PC-3) | GI50 (UO-31) | GI50 (OVCAR-3) | GI50 (SNB-19) | GI50 (SNB-75) | GI50 (HOP-92) | GI50 (T47D) | GI50 (786-0) | GI50 (SF-295) | GI50 (Malme-3M) | GI50 (DU-145) | GI50 (MOLT-4) | GI50 (SK-MEL-28) | GI50 (K562) | GI50 (SF-539) | GI50 (NCI/ADR-RES) | GI50 (M14) | GI50 (IGROV-1) | GI50 (OVCAR-4)
CC1C2(C)OCC(C#N)(C(=N)O2)C1(C#N)C#N (centres undefined) | 22.8 µM (inactive) | 24.2 µM (inactive) | 36.2 µM (inactive) | 15.1 µM (inactive) | 43.5 µM (inactive) | 96.8 µM (inactive) | 21.9 µM (inactive) | 12.6 µM (inactive) | 21.3 µM (inactive) | 78 µM (inactive) | 18.5 µM (inactive) | 22.5 µM (inactive) | 27.3 µM (inactive) | 24.8 µM (inactive) | 32.8 µM (inactive) | 23.1 µM (inactive) | 41.2 µM (inactive) | 16.1 µM (inactive) | 33 µM (inactive) | –
Cc1ncc(CSc2ccccc2N)c(CO)c1O | – | > 100 µM (inactive) | – | > 100 µM (inactive) | > 100 µM (inactive) | > 100 µM (inactive) | > 100 µM (inactive) | > 100 µM (inactive) | > 100 µM (inactive) | > 100 µM (inactive) | > 100 µM (inactive) | > 100 µM (inactive) | > 100 µM (inactive) | > 100 µM (inactive) | > 100 µM (inactive) | > 100 µM (inactive) | > 100 µM (inactive) | > 100 µM (inactive) | > 100 µM (inactive) | > 100 µM (inactive)
CC(=O)CC[N+](C)(C)C | 5.24 µM (inactive) | 76.9 µM (inactive) | 42 µM (inactive) | 37.3 µM (inactive) | 22.7 µM (inactive) | 29 µM (inactive) | 10.7 µM (inactive) | 29.2 µM (inactive) | 23.6 µM (inactive) | 83.6 µM (inactive) | 16.1 µM (inactive) | 88.5 µM (inactive) | 6.15 µM (inactive) | 28.5 µM (inactive) | 3.21 µM (inactive) | 62.8 µM (inactive) | 38.9 µM (inactive) | 23 µM (inactive) | 37.3 µM (inactive) | 14.8 µM (inactive)
CCOC(=O)c1c(Br)c(-c2ccc(OC)cc2)c(Br)n1C | 16.3 µM (inactive) | 11.1 µM (inactive) | 12.2 µM (inactive) | 17.1 µM (inactive) | 34.9 µM (inactive) | 1.94 µM (inactive) | 8.17 µM (inactive) | 13.4 µM (inactive) | 21.6 µM (inactive) | 25.2 µM (inactive) | 12.1 µM (inactive) | 32.2 µM (inactive) | 8.57 µM (inactive) | 37.6 µM (inactive) | 3.61 µM (inactive) | 20.7 µM (inactive) | 5.18 µM (inactive) | 26.4 µM (inactive) | 22.2 µM (inactive) | 47.1 µM (inactive)
COc1ccc(CCCNC(=O)Cc2cc(OC)c(OC)cc2CO)cc1OC | > 100 µM (inactive) | > 100 µM (inactive) | > 100 µM (inactive) | > 100 µM (inactive) | > 100 µM (inactive) | > 100 µM (inactive) | > 100 µM (inactive) | 23.3 µM (inactive) | > 100 µM (inactive) | – | > 100 µM (inactive) | > 100 µM (inactive) | > 100 µM (inactive) | > 100 µM (inactive) | > 100 µM (inactive) | – | > 100 µM (inactive) | > 100 µM (inactive) | > 100 µM (inactive) | > 100 µM (inactive)
O=c1[nH]c2cc(C(F)(F)F)ccc2nc1Cc1ccccc1 | > 100 µM (inactive) | > 100 µM (inactive) | 78.3 µM (inactive) | – | 66.2 µM (inactive) | 41.6 µM (inactive) | 18.5 µM (inactive) | 38.5 µM (inactive) | 36.6 µM (inactive) | 40.6 µM (inactive) | – | > 100 µM (inactive) | > 100 µM (inactive) | > 100 µM (inactive) | 62.2 µM (inactive) | 63.2 µM (inactive) | 67 µM (inactive) | > 100 µM (inactive) | 46.7 µM (inactive) | 63.7 µM (inactive)
Cc1cn(C2CC(O)C(Cn3cc(Cn4ncc(=O)[nH]c4=O)nn3)O2)c(=O)[nH]c1=O (centres undefined) | 0.478 µM (active) | > 100 µM (inactive) | > 100 µM (inactive) | > 100 µM (inactive) | > 100 µM (inactive) | > 100 µM (inactive) | > 100 µM (inactive) | > 100 µM (inactive) | > 100 µM (inactive) | > 100 µM (inactive) | > 100 µM (inactive) | > 100 µM (inactive) | > 100 µM (inactive) | > 100 µM (inactive) | – | > 100 µM (inactive) | > 100 µM (inactive) | > 100 µM (inactive) | > 100 µM (inactive) | > 100 µM (inactive)
O=C(NCc1ccccc1)c1cc2ccccc2o/c1=N\c1ccccc1F | > 100 µM (inactive) | 33.5 µM (inactive) | 8.39 µM (inactive) | 46 µM (inactive) | 25.6 µM (inactive) | 20 µM (inactive) | 20 µM (inactive) | 16.6 µM (inactive) | 10.8 µM (inactive) | 22 µM (inactive) | 25.2 µM (inactive) | 29.7 µM (inactive) | > 100 µM (inactive) | 66.2 µM (inactive) | > 100 µM (inactive) | – | 46.7 µM (inactive) | 34.4 µM (inactive) | 24 µM (inactive) | 13.5 µM (inactive)
CCc1nc(N)nc(N)c1-c1ccc2nnn(O)c2c1 | > 100 µM (inactive) | > 100 µM (inactive) | > 100 µM (inactive) | > 100 µM (inactive) | > 100 µM (inactive) | > 100 µM (inactive) | > 100 µM (inactive) | > 100 µM (inactive) | > 100 µM (inactive) | > 100 µM (inactive) | – | > 100 µM (inactive) | > 100 µM (inactive) | > 100 µM (inactive) | 76.2 µM (inactive) | > 100 µM (inactive) | > 100 µM (inactive) | > 100 µM (inactive) | > 100 µM (inactive) | > 100 µM (inactive)
C=CCc1cccc2cc(C(=O)NCc3ccccc3)c(=N)oc12 | 32.6 µM (inactive) | 18.6 µM (inactive) | – | 20.7 µM (inactive) | 29.9 µM (inactive) | 31.3 µM (inactive) | 48.5 µM (inactive) | 24.5 µM (inactive) | 29.1 µM (inactive) | – | 19.4 µM (inactive) | 37.1 µM (inactive) | > 100 µM (inactive) | 30.7 µM (inactive) | > 100 µM (inactive) | 47.5 µM (inactive) | 34.2 µM (inactive) | 40.6 µM (inactive) | 24.9 µM (inactive) | 41.4 µM (inactive)
COc1ccc([C@H]2CC(=O)C[C@H](c3ccc(OC)cc3)C23C(=O)c2ccccc2C3=O)cc1 | 3.68 µM (inactive) | 4.21 µM (inactive) | 17.3 µM (inactive) | 2.97 µM (inactive) | 5.35 µM (inactive) | 2.9 µM (inactive) | 5.74 µM (inactive) | 4.31 µM (inactive) | 5.57 µM (inactive) | 3.95 µM (inactive) | 5 µM (inactive) | 16.4 µM (inactive) | 4.79 µM (inactive) | 9.64 µM (inactive) | 3.52 µM (inactive) | 5.04 µM (inactive) | 1.94 µM (inactive) | 6.34 µM (inactive) | 5.28 µM (inactive) | 9.57 µM (inactive)
COc1ccc2c(c1)C1Oc3ccccc3CC1(O)CO2 (centres undefined) | > 100 µM (inactive) | > 100 µM (inactive) | > 100 µM (inactive) | > 100 µM (inactive) | – | > 100 µM (inactive) | > 100 µM (inactive) | > 100 µM (inactive) | > 100 µM (inactive) | > 100 µM (inactive) | > 100 µM (inactive) | > 100 µM (inactive) | > 100 µM (inactive) | – | > 100 µM (inactive) | > 100 µM (inactive) | > 100 µM (inactive) | > 100 µM (inactive) | > 100 µM (inactive) | > 100 µM (inactive)
CC1=NN2CCC(=O)N=C2S1 | > 100 µM (inactive) | > 100 µM (inactive) | – | > 100 µM (inactive) | > 100 µM (inactive) | > 100 µM (inactive) | > 100 µM (inactive) | > 100 µM (inactive) | > 100 µM (inactive) | > 100 µM (inactive) | > 100 µM (inactive) | > 100 µM (inactive) | > 100 µM (inactive) | > 100 µM (inactive) | > 100 µM (inactive) | > 100 µM (inactive) | > 100 µM (inactive) | > 100 µM (inactive) | > 100 µM (inactive) | > 100 µM (inactive)
C[N+]1(C)C(c2ccccc2)C(=O)O[B@-]1(F)c1ccccc1 (some centres undefined) | > 100 µM (inactive) | > 100 µM (inactive) | > 100 µM (inactive) | > 100 µM (inactive) | > 100 µM (inactive) | 60.3 µM (inactive) | 88.1 µM (inactive) | > 100 µM (inactive) | > 100 µM (inactive) | > 100 µM (inactive) | > 100 µM (inactive) | > 100 µM (inactive) | > 100 µM (inactive) | > 100 µM (inactive) | > 100 µM (inactive) | – | > 100 µM (inactive) | > 100 µM (inactive) | > 100 µM (inactive) | > 100 µM (inactive)
CC(C)[C@@H]1NC(=O)[C@@H]2N=C(O[C@H]2C)[C@H](C(C)C)NC(=O)C2N=C1O[C@H]2C | > 100 µM (inactive) | > 100 µM (inactive) | > 100 µM (inactive) | > 100 µM (inactive) | > 100 µM (inactive) | > 100 µM (inactive) | 94.4 µM (inactive) | > 100 µM (inactive) | > 100 µM (inactive) | > 100 µM (inactive) | > 100 µM (inactive) | > 100 µM (inactive) | > 100 µM (inactive) | > 100 µM (inactive) | > 100 µM (inactive) | > 100 µM (inactive) | > 100 µM (inactive) | > 100 µM (inactive) | > 100 µM (inactive) | > 100 µM (inactive)

— ChEMBL document CHEMBL1201862, “PubChem BioAssay data set” (2004)
